From ChEMBL document CHEMBL1201862, “PubChem BioAssay data set” (2004)
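Following 48 hours of exposure in 96-well plates, responses at five concentrations were used to interpolate endpoints linearly. Here, GI50 denotes the concentration required for 50% inhibition of growth.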 Calls of active or inactive are those of the source. No stated cut-off is given here; in the data, active = GI50 up to about 1.1 µM and inactive = higher.

What was measured:
Assay in all cases: growth of human tumour cells (NCI), 48 h
UACC-257 = test system: UACC-257
MOLT-4 = test system: MOLT-4
KM12 = test system: KM12
K562 = test system: K562
SK-MEL-5 = test system: SK-MEL-5
COLO 205 = test system: COLO 205
ACHN = test system: ACHN
OVCAR-3 = test system: OVCAR-3
SNB-78 = test system: SNB-78
SK-OV-3 = test system: SK-OV-3
NCI-H522 = test system: NCI-H522
SF-539 = test system: SF-539
HCT-116 = test system: HCT-116
HOP-62 = test system: HOP-62
SNB-75 = test system: SNB-75
RXF 393 = test system: RXF 393

Measured: GI50

O=C1C=CC=CC2CC=C[C@@H](O)C12 (stereo partly drawn)
inactive: UACC-257 14 µM | MOLT-4 20.9 µM | KM12 10.4 µM | K562 26.5 µM | SK-MEL-5 18 µM | COLO 205 19.6 µM | ACHN 17.3 µM | OVCAR-3 > 10 µM | SNB-78 32.4 µM | SK-OV-3 69.7 µM | NCI-H522 13.7 µM | SF-539 24.5 µM | HCT-116 13.2 µM | HOP-62 45.7 µM

CC1=C(C)C(=O)c2c(cc3ccc4ccccc4n23)C1=O
inactive: MOLT-4 > 100 µM | SNB-75 > 100 µM | RXF 393 > 100 µM | KM12 > 100 µM | K562 > 100 µM | SK-MEL-5 > 100 µM | COLO 205 > 100 µM | ACHN > 100 µM | OVCAR-3 > 100 µM | SNB-78 > 100 µM | SK-OV-3 > 100 µM | SF-539 > 100 µM

O=C1Nc2ccccc2/C1=N/NC(=O)c1ccccc1O
inactive: UACC-257 44 µM | MOLT-4 29 µM | SNB-75 19.8 µM | RXF 393 16.6 µM | KM12 33.7 µM | K562 40.9 µM | COLO 205 > 100 µM | ACHN 21.8 µM | OVCAR-3 85.3 µM | SNB-78 99.8 µM | SK-OV-3 12.1 µM | NCI-H522 39.7 µM | SF-539 41.4 µM | HCT-116 36.8 µM | HOP-62 57.3 µM

CC1CCP(=O)(c2ccccc2)CC1 (stereo not drawn)
inactive: UACC-257 > 100 µM | MOLT-4 > 100 µM | SNB-75 > 100 µM | RXF 393 > 100 µM | KM12 > 100 µM | K562 > 100 µM | SK-MEL-5 > 100 µM | COLO 205 > 100 µM | ACHN > 100 µM | OVCAR-3 > 100 µM | SNB-78 > 100 µM | SK-OV-3 > 100 µM | SF-539 > 100 µM | HOP-62 > 100 µM

CCOC(=O)NC(=O)c1cn(CCCO)c(=O)[nH]c1=O
inactive: UACC-257 > 100 µM | MOLT-4 > 100 µM | SNB-75 45.6 µM | KM12 > 100 µM | K562 > 100 µM | SK-MEL-5 > 100 µM | COLO 205 > 100 µM | ACHN > 100 µM | OVCAR-3 > 100 µM | SNB-78 > 100 µM | SK-OV-3 > 100 µM | SF-539 > 100 µM | HCT-116 > 100 µM | HOP-62 > 100 µM

COc1ccc2c(CCNC(C)=O)c(C(C)=O)[nH]c2c1
inactive: UACC-257 > 100 µM | MOLT-4 > 100 µM | SNB-75 > 100 µM | RXF 393 > 100 µM | KM12 > 100 µM | K562 > 100 µM | COLO 205 > 100 µM | ACHN > 100 µM | OVCAR-3 > 100 µM | SNB-78 > 100 µM | NCI-H522 > 100 µM | SF-539 > 100 µM | HCT-116 > 100 µM | HOP-62 > 100 µM

CN(C)c1[se]nc2c1c(=O)n(C)c(=O)n2C
inactive: UACC-257 > 100 µM | MOLT-4 > 100 µM | SNB-75 58.5 µM | KM12 > 100 µM | K562 > 100 µM | SK-MEL-5 > 100 µM | COLO 205 > 100 µM | ACHN > 100 µM | OVCAR-3 > 100 µM | SNB-78 > 100 µM | SK-OV-3 > 100 µM | NCI-H522 > 100 µM | SF-539 > 100 µM | HCT-116 > 100 µM | HOP-62 > 100 µM

COC(=O)NC(=O)c1cn(CCCOC(=O)CCCCCCCCC(=O)OCCCn2cc(C(=O)NC(=O)OC)c(=O)[nH]c2=O)c(=O)[nH]c1=O
inactive: UACC-257 > 100 µM | MOLT-4 > 100 µM | SNB-75 22.3 µM | RXF 393 29.4 µM | KM12 > 100 µM | K562 > 100 µM | SK-MEL-5 > 100 µM | ACHN > 100 µM | OVCAR-3 > 100 µM | SNB-78 78 µM | SF-539 71.1 µM | HCT-116 > 100 µM | HOP-62 23.1 µM

CC(C(=O)c1ccccc1)C1(O)C(=O)Nc2ccc(Cl)cc21 (stereo not drawn)
inactive: UACC-257 31.6 µM | SNB-75 > 100 µM | RXF 393 > 100 µM | KM12 > 100 µM | COLO 205 > 100 µM | ACHN > 100 µM | OVCAR-3 37.4 µM | SNB-78 > 100 µM | SK-OV-3 > 100 µM | SF-539 > 100 µM | HCT-116 > 100 µM | HOP-62 > 100 µM

CN(C(=O)C12C3C4C1C1C2C3C41C(O)C(C)(C)C)C(C)(C)C (stereo not drawn)
inactive: UACC-257 > 100 µM | MOLT-4 > 100 µM | SNB-75 > 100 µM | KM12 > 100 µM | K562 > 100 µM | SK-MEL-5 > 100 µM | COLO 205 > 100 µM | ACHN > 100 µM | OVCAR-3 > 100 µM | SNB-78 > 100 µM | SK-OV-3 > 100 µM | NCI-H522 58.2 µM | SF-539 > 100 µM | HCT-116 > 100 µM | HOP-62 > 100 µM

CSc1nc(NC2OCC(OC(C)=O)C(OC(C)=O)C2OC(C)=O)c2c(OC(C)=O)c(C)c(=O)oc2n1 (stereo not drawn)
inactive: UACC-257 > 100 µM | MOLT-4 > 100 µM | SNB-75 > 100 µM | RXF 393 > 100 µM | KM12 > 100 µM | K562 > 100 µM | SK-MEL-5 > 100 µM | COLO 205 > 100 µM | ACHN > 100 µM | OVCAR-3 > 100 µM | SNB-78 > 100 µM | SK-OV-3 > 100 µM | SF-539 > 100 µM | HCT-116 > 100 µM | HOP-62 > 100 µM

CCN(CC)c1ccc(/N=C2/C=CC(=O)c3ncccc32)c(C)c1
inactive: UACC-257 4.38 µM | MOLT-4 2 µM | SNB-75 14.8 µM | RXF 393 3.48 µM | KM12 13.8 µM | K562 2.45 µM | SK-MEL-5 5.53 µM | COLO 205 2.18 µM | ACHN 3.92 µM | OVCAR-3 3.33 µM | SNB-78 9.55 µM | SK-OV-3 20 µM | SF-539 5.56 µM | HCT-116 2.47 µM | HOP-62 20.2 µM

O=C1CCN2C(=O)CCN12
inactive: UACC-257 > 100 µM | MOLT-4 > 100 µM | KM12 > 100 µM | K562 > 100 µM | COLO 205 > 100 µM | ACHN > 100 µM | OVCAR-3 > 100 µM | SNB-78 > 100 µM | SK-OV-3 > 100 µM | NCI-H522 > 100 µM | HCT-116 > 100 µM | HOP-62 > 100 µM

CCN(CC)CCNC(=O)c1ccccc1Nc1c(Cl)cccc1Cl
inactive: UACC-257 15.1 µM | MOLT-4 13.1 µM | SNB-75 11.2 µM | RXF 393 12.3 µM | K562 > 10 µM | SK-MEL-5 11.8 µM | COLO 205 12.9 µM | ACHN 17.5 µM | SNB-78 16.4 µM | SK-OV-3 16.7 µM | SF-539 17 µM | HCT-116 12.8 µM | HOP-62 11.3 µM
